Test [1] addresses T1, Gal4-RXRα total mutant (Homo sapiens, UniProt P19793, E453R/F450Y/K284E/V280T/V298T).
T1 sequence (P19793 225-462 V280T/K284E/V298T/F450Y/E453R): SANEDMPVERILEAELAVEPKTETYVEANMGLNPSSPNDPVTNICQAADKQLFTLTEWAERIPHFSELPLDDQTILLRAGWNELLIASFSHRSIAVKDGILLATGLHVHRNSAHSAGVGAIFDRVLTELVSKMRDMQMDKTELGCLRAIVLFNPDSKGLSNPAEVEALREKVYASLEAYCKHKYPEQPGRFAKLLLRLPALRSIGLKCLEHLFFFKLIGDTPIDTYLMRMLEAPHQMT
Briefly: Gal4-RXRα total mutant / VP16-SRC1-2 hybrid reporter gene assay in HEK293T cells.

Test [2] addresses T2, Gal4-RXRα wildtype (Homo sapiens, UniProt P19793).
T2 sequence (P19793 225-462): T1 sequence (P19793 225-462 V280T/K284E/V298T/F450Y/E453R) with T56V, E60K, T74V, Y226F, R229E
T2 sequence (Q15788 676-701 C676S partner): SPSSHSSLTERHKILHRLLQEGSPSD
As to the kind of experiment: Gal4-RXRα wildtype / VP16-SRC1-2 hybrid reporter gene assay in HEK293T cells. The settings on record: Gal4-RXRα with VP16-SRC1. Background: A reporter such as luciferase makes a cellular process visible.

Residue numbers refer to the chain shown, from its start.

With `CC1(C)CCC(C)(C)c2cc(C3(c4ccc(C(=O)O)cc4)OCCO3)ccc21` [SR11237], the “transactivation of reporter gene expression” value is reported as “substantial increase in transactivation” in test [1] (RXRα mutant, compared with DMSO control) and “substantial increase in transactivation” in test [2]. In addition, the “transactivation by the RXRα mutant in comparison with RXRα wt” value in test [1] (at ≥ 0.1 μM SR11237) was “markedly reduced”.

(Values after paper PMC8258697 (The Journal of Biological Chemistry, 2021).)
